In paper PMC3183289 (Bioorganic & medicinal chemistry, 2011):
Like-named read-outs stand apart in the source and are kept apart here. One block for each compound: values may come before it.

What was measured:
mPGES-1 = details: cited from earlier work
recombinant mPGES-1 = target: T1, recombinant mPGES-1 (Homo sapiens, UniProt O14684); assay: in vitro mPGES-1 enzyme activity assay; format: biochemical; details: −RTln(Kd) ≈ −RTln(IC50), from measured IC50
T1 sequence (O14684 1-152): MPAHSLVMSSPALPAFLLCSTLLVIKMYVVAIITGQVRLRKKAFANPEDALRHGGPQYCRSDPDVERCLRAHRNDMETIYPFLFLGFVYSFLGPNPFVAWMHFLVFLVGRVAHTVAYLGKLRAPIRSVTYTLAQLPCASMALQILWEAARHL

Structure (SMILES): CCCCC/C=C\C\C=C/C=C/C=C/[C@@H](SC[C@H](NC(=O)CC[C@H](N)C(=O)O)C(=O)NCC(=O)O)[C@@H](O)CCCC(=O)O [Leukotriene C4]
IC50 (mPGES-1; probably by competing with glutathione): micromolar

ΔGbind^Exp (recombinant mPGES-1): -7.44 kcal/mol
Structure (SMILES): COCCN(c1ccc(/C=C2\S/C(=N\c3ccccc3)N(C(C)C(=O)O)C2=O)cc1)c1ccccc1OC (stereo not drawn) [Compound 3]

Structure (SMILES): CSc1ccc(/C=C2/C(C)=C(CC(=O)O)c3cc(F)ccc32)cc1
IC50 (mPGES-1): 80 µM
